Read-outs that look alike come from different tables or passages of the source.
How the values were obtained:
Format in all cases: biochemical
PI3Kβ = target: T1, PI3Kβ (Homo sapiens, UniProt P42338); experiment: TR-FRET enzymatic activity assay, PI3Kβ
T1 construct: made in house
Experimental: (§1) The compounds of formula (I) were characterized for their enzymatic activity against the PI3K isoforms. The activities were measured using a time-resolved fluorescence resonance energy transfer (TR-FRET) assay.

PI3Kδ = target: T2, PI3Kδ (Homo sapiens, UniProt O00329); experiment: TR-FRET enzymatic activity assay, PI3Kδ
T2 construct: made in house
T2 sequence (O00329 whole entry): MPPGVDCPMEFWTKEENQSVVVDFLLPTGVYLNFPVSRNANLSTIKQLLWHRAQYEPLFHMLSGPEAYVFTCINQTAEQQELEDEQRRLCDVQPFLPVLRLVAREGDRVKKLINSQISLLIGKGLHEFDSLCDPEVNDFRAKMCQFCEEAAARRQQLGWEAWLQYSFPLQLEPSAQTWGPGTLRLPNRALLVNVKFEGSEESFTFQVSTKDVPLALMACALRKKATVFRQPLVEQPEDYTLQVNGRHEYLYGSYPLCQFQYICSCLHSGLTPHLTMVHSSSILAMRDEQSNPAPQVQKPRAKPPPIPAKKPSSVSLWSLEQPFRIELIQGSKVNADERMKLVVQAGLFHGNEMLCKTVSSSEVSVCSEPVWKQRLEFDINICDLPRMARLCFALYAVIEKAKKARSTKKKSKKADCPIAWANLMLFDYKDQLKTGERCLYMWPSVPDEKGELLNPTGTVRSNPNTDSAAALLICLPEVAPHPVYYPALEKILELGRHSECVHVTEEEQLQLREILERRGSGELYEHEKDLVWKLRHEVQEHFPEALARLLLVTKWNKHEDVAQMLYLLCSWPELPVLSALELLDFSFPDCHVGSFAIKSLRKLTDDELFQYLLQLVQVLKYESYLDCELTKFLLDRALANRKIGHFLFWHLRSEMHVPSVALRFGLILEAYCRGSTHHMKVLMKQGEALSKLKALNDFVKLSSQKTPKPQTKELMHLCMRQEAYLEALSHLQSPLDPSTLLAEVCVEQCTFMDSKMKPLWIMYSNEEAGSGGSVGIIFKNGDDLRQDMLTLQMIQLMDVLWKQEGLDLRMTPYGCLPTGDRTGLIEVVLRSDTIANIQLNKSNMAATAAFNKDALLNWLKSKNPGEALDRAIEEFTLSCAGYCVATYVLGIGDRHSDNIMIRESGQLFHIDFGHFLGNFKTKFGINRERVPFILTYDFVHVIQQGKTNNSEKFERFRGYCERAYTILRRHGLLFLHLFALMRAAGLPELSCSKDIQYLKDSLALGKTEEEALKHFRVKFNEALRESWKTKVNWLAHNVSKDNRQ
T2 sequence (P27986 whole entry partner): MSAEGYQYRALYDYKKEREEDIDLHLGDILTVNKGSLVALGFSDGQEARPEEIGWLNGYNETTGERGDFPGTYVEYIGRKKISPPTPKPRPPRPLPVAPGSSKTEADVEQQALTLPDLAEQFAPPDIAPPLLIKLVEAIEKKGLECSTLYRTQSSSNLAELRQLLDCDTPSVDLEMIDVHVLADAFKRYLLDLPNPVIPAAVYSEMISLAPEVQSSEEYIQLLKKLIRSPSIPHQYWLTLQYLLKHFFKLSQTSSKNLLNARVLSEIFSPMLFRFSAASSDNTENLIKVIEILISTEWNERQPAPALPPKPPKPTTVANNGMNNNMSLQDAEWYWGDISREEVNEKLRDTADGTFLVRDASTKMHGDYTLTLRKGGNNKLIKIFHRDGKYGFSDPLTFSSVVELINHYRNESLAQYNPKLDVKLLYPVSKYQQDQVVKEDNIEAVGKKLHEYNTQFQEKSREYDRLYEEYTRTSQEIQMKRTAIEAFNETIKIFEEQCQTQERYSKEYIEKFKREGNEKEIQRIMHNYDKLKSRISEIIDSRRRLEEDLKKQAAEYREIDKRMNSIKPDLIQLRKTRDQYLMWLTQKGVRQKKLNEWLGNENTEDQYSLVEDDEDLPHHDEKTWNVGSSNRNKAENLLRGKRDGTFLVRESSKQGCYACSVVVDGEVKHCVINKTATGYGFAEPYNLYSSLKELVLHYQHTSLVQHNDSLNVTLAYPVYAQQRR
Experimental: as §1

PI3Kγ = target: T3, PI3Kγ (Homo sapiens, UniProt P48736); experiment: TR-FRET enzymatic activity assay, PI3Kγ
T3 construct: made in house
T3 sequence (P48736 whole entry): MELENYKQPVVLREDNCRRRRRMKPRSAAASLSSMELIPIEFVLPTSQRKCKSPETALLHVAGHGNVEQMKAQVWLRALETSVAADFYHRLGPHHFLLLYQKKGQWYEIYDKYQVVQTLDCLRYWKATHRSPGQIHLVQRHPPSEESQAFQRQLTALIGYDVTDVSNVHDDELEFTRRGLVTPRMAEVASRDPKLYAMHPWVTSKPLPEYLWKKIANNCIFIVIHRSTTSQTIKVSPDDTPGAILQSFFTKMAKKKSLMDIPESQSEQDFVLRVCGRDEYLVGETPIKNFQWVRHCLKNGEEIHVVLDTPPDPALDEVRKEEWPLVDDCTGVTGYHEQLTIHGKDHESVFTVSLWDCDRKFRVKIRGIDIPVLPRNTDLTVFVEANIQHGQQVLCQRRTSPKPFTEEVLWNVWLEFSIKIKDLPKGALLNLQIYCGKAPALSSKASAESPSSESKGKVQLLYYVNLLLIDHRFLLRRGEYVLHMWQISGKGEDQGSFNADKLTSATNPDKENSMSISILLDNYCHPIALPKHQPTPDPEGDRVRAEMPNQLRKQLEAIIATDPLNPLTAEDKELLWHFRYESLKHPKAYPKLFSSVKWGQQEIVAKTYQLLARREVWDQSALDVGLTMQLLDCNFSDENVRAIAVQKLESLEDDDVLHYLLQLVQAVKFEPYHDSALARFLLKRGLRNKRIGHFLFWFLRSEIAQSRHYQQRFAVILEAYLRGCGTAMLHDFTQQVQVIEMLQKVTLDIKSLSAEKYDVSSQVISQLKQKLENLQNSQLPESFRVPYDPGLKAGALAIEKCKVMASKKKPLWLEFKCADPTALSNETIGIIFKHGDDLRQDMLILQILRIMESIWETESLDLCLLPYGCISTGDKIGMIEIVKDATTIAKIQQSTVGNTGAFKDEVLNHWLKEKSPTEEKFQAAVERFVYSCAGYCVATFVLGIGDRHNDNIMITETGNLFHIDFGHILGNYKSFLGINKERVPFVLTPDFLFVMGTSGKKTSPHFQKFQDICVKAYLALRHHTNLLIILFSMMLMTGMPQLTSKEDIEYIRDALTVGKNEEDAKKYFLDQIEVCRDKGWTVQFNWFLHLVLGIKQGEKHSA
T3 sequence (Q8WYR1 whole entry partner): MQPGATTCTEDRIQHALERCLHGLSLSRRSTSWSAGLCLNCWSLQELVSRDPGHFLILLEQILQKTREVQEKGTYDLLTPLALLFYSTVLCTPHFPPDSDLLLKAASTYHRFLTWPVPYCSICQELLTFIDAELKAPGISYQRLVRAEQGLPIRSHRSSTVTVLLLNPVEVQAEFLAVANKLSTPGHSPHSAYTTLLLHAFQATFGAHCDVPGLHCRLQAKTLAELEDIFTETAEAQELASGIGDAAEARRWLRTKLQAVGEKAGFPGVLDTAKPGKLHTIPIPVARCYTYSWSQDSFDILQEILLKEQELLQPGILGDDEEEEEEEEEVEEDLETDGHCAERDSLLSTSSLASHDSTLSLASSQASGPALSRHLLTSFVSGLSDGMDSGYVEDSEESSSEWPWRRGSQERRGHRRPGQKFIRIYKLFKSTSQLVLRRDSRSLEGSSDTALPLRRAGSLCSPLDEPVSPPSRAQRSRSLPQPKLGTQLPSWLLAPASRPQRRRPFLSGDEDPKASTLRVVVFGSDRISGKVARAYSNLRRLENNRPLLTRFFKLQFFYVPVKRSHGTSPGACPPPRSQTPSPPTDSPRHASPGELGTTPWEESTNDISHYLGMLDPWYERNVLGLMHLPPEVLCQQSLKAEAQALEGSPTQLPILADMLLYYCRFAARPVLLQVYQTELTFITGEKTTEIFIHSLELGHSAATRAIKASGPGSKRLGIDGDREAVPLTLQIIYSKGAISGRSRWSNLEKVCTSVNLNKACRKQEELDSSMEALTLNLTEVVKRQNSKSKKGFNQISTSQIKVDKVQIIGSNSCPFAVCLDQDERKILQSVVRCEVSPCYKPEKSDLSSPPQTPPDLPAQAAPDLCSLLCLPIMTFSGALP
Experimental: as §1

[1] = recombinant heterodimeric PI3Kβ 25-50 pM, 2× Km ATP, 30 minutes at 25°C
[2] = recombinant heterodimeric PI3Kδ 25-50 pM, 2× Km ATP, 30 minutes at 25°C
[3] = recombinant heterodimeric PI3Kγ 2 nM, 2× Km ATP, 30 minutes at 25°C

T1 sequence (P42338 whole entry): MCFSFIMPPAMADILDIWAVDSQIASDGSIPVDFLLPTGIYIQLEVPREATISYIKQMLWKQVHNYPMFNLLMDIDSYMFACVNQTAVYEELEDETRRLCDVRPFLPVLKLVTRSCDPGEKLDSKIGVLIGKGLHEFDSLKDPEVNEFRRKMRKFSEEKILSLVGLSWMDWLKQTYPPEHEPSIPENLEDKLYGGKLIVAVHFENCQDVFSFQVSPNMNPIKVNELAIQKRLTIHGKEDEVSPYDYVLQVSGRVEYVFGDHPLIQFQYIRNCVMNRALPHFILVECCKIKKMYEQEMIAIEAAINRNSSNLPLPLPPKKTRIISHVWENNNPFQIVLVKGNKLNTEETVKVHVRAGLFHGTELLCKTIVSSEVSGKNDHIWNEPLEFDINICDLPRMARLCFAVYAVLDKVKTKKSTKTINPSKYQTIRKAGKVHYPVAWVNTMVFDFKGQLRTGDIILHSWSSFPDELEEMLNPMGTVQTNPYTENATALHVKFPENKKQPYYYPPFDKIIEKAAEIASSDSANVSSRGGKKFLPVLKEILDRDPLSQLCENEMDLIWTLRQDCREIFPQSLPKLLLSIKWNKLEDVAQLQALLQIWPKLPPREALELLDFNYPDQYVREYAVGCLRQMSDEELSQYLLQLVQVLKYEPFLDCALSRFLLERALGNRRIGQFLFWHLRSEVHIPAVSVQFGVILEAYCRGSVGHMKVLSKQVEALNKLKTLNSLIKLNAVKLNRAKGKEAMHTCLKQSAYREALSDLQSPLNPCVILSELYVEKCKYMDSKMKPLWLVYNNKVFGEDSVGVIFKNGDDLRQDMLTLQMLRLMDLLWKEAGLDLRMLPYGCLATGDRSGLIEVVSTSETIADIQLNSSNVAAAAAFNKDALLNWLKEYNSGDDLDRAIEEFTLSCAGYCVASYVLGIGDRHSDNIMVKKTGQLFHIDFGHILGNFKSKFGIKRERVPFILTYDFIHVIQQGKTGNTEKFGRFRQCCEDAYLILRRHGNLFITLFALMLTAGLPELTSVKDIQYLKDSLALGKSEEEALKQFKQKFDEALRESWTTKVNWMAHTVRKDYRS
T1 sequence (P27986 whole entry partner): as the sequence (P27986 whole entry partner) above

Structure (SMILES)	IC50 (PI3Kβ; [1]) [nM]	IC50 (PI3Kδ; [2]) [nM]	IC50 (PI3Kγ; [3]) [nM]	IC50 (PI3Kβ) [nM]	IC50 (PI3Kδ) [nM]	IC50 (PI3Kγ) [nM]
CC[C@H](Nc1ncnn2ccnc12)c1nc2cccc(Cl)c2c(=O)n1N1CCNCC1 [Compound 42, (S)-5-chloro-2-(1-(imidazo[2,1-f][1,2,4]triazin-4-ylamino)propyl)-3-(piperazin-1-yl)quinazolin-4(3H)-one]	45	8	> 10000			
O=c1c2c(Cl)cccc2nc([C@@H](Nc2ncnn3ccnc23)C2CC2)n1N1CCNCC1 [Compound 43, (S)-5-chloro-2-(cyclopropyl(imidazo[2,1-f][1,2,4]triazin-4-ylamino)methyl)-3-(piperazin-1-yl)quinazolin-4(3H)-one]	30	4	> 10000			
CC[C@H](Nc1nc(N)nc(C)c1C#N)c1nc2cccc(Cl)c2c(=O)n1N1CCNCC1 [Compound 44, (S)-2-amino-4-((1-(5-chloro-4-oxo-3-(piperazin-1-yl)-3,4-dihydroquinazolin-2-yl)propyl)amino)-6-methylpyrimidine-5-carbonitrile]	2	1	1800			
Cc1nc(N)nc(N[C@H](c2nc3cccc(Cl)c3c(=O)n2N2CCNCC2)C2CC2)c1C#N [Compound 46, (S)-2-amino-4-(((5-chloro-4-oxo-3-(piperazin-1-yl)-3,4-dihydroquinazolin-2-yl)(cyclopropyl)methyl)amino)-6-methylpyrimidine-5-carbonitrile]	2	1	2600			
O=c1c2c(Cl)ccc(F)c2nc([C@@H](Nc2ncnn3ccnc23)C2CC2)n1N1CCNCC1 [Compound 47, (S)-5-chloro-2-(cyclopropyl(imidazo[2,1-f][1,2,4]triazin-4-ylamino)methyl)-8-fluoro-3-(piperazin-1-yl)quinazolin-4(3H)-one]	48	5	> 10000			
N#Cc1c(N)nc(N)nc1N[C@H](c1nc2c(F)ccc(Cl)c2c(=O)n1N1CCNCC1)C1CC1 [Compound 48, (S)-2,4-diamino-6-(((5-chloro-8-fluoro-4-oxo-3-(piperazin-1-yl)-3,4-dihydroquinazolin-2-yl)(cyclopropyl)methyl)amino)pyrimidine-5-carbonitrile]	3	1	3300			
C[C@H](Nc1ncnc2scnc12)c1nc2c(Cl)ccc(Cl)c2c(=O)n1N1CCNCC1 [Compound 49, (S)-5,8-dichloro-3-(piperazin-1-yl)-2-(1-(thiazolo[5,4-d]pyrimidin-7-ylamino)ethyl)quinazolin-4(3H)-one]	19	2	> 10000			
C[C@H](Nc1ncnc2scnc12)c1nc2c(F)ccc(Cl)c2c(=O)n1N1CCNCC1 [Compound 50, (S)-5-chloro-8-fluoro-3-(piperazin-1-yl)-2-(1-(thiazolo[5,4-d]pyrimidin-7-ylamino)ethyl)quinazolin-4(3H)-one]	15	2	> 10000			
C[C@H](Nc1ncnc2ccc(Cl)nc12)c1nc2c(Cl)ccc(Cl)c2c(=O)n1N1CCNCC1 [Compound 52, (S)-5,8-dichloro-2-(1-((6-chloropyrido[3,2-d]pyrimidin-4-yl)amino)ethyl)-3-(piperazinl-yl)quinazolin-4(3H)-one]				8	3	3100
C[C@H](Nc1nc(N)nc(N)c1C#N)c1nc2c(F)ccc(Cl)c2c(=O)n1N1CCNCC1 [Compound 54, (S)-2,4-diamino-6-((1-(5-chloro-8-fluoro-4-oxo-3-(piperazin-1-yl)-3,4-dihydroquinazolin-2-yl)ethyl)amino)pyrimidine-5-carbonitrile]	4	2	1900			
C[C@H](Nc1ncnc(N)c1C#N)c1nc2cccc(Cl)c2c(=O)n1N1CCNCC1 [Compound 55, (S)-4-amino-6-((1-(5-chloro-4-oxo-3-(piperazin-1-yl)-3,4-dihydroquinazolin-2-yl)ethyl)amino)pyrimidine-5-carbonitrile]	14	1	> 10000			
C[C@H](Nc1ncnc(N)c1C#Cc1ccc(F)cn1)c1nc2cccc(Cl)c2c(=O)n1N1CCNCC1 [Compound 58, (S)-2-(1-((6-amino-5-((5-fluoropyridin-2-yl)ethynyl)pyrimidin-4-yl)amino)ethyl)-5-chloro-3-(piperazin-1-yl)quinazolin-4(3H)-one]	10	2	> 10000			
Cc1nc(N)c(C(=O)N[C@@H](C)c2nc3cccc(Cl)c3c(=O)n2N2CCNCC2)nc1C [Compound 59, (S)-3-amino-N-(1-(5-chloro-4-oxo-3-(piperazin-1-yl)-3,4-dihydroquinazolin-2-yl)ethyl)-5,6-dimethylpyrazine-2-carboxamide]	73	280	> 10000			
Cc1cccc2nc([C@H](C)Nc3ncnc(N)c3C#N)n(C3CCNCC3)c(=O)c12 [Compound 60, (S)-4-amino-6-((1-(5-methyl-4-oxo-3-(piperidin-4-yl)-3,4-dihydroquinazolin-2-yl)ethyl)amino)pyrimidine-5-carbonitrile]	130	5	> 10000			
C[C@H](Nc1nc(N)nc(N)c1C#N)c1nc2cccc(Cl)c2c(=O)n1N1CCNC(C(F)(F)F)C1 (stereo partly drawn) [Compound 61, 2,4-diamino-6-(((1S)-1-(5-chloro-4-oxo-3-(3-(trifluoromethyl)piperazin-1-yl)-3,4-dihydroquinazolin-2-yl)ethyl)amino)pyrimidine-5-carbonitrile]	150	0.9	400			
C[C@H](Nc1ncnc(N)c1C#N)c1nc2cccc(Cl)c2c(=O)n1N1CCNC(C(F)(F)F)C1 (stereo partly drawn) [Compound 62, 4-amino-6-(((1S)-1-(5-chloro-4-oxo-3-(3-(trifluoromethyl)piperazin-1-yl)-3,4-dihydroquinazolin-2-yl)ethyl)amino)pyrimidine-5-carbonitrile]	820	9	8400			
C[C@H](Nc1ncnc(N)c1C#N)c1nc2cccc(Cl)c2c(=O)n1N1CCNC2(CC2)C1 [Compound 63, (S)-4-amino-6-((1-(5-chloro-4-oxo-3-(4,7-diazaspiro[2.5]octan-7-yl)-3,4-dihydroquinazolin-2-yl)ethyl)amino)pyrimidine-5-carbonitrile]	5	2	> 10000			
C[C@H](Nc1ncnn2ccnc12)c1nc2cccc(Cl)c2c(=O)n1N1CCCNCC1 [Compound 64, (S)-5-chloro-3-(1,4-diazepan-1-yl)-2-(1-(imidazo[2,1-f][1,2,4]triazin-4-ylamino)ethyl)quinazolin-4(3H)-one]	94	9	> 10000			
C[C@H](Nc1ncnn2ccnc12)c1nc2cccc(Cl)c2c(=O)n1N1CCNCC1 [Compound 65, (S)-5-chloro-2-(1-(imidazo[2,1-f][1,2,4]triazin-4-ylamino)ethyl)-3-(piperazin-1-yl)quinazolin-4(3H)-one]	42	8	> 10000			

Other lines, results leading:

IC50 (PI3Kβ; [1]) [nM]	IC50 (PI3Kδ; [2]) [nM]	IC50 (PI3Kγ; [3]) [nM]	IC50 (PI3Kβ) [nM]	IC50 (PI3Kδ) [nM]	IC50 (PI3Kγ) [nM]	Structure (SMILES)
370	13	> 10000				C[C@H](Nc1ncnc(N)c1C#N)c1nc2cccc(Cl)c2c(=O)n1N1CCCNCC1 [Compound 66, (S)-4-amino-6-((1-(5-chloro-3-(1,4-diazepan-1-yl)-4-oxo-3,4-dihydroquinazolin-2-yl)ethyl)amino)pyrimidine-5-carbonitrile]
22	2	> 10000				C[C@H](Nc1ncnc(N)c1C#N)c1nc2cccc(Cl)c2c(=O)n1N1CCCNCC1 [Compound 67, (S)-4-amino-6-((1-(5-chloro-3-(1,4-diazepan-1-yl)-4-oxo-3,4-dihydroquinazolin-2-yl)ethyl)amino)pyrimidine-5-carbonitrile]
1	3	2100				CC[C@H](Nc1nc(N)nc(N)c1C#N)c1nc2cccc(Cl)c2c(=O)n1N1CCNCC1 [Compound 68, (S)-2,4-diamino-6-((1-(5-chloro-4-oxo-3-(piperazin-1-yl)-3,4-dihydroquinazolin-2-yl)propyl)amino)pyrimidine-5-carbonitrile]
3	1	7400				C[C@H](Nc1ncnc2[nH]cc(Br)c12)c1nc2cccc(Cl)c2c(=O)n1N1CCNCC1 [Compound 69, (S)-2-(1-((5-bromo-7H-pyrrolo[2,3-d]pyrimidin-4-yl)amino)ethyl)-5-chloro-3-(piperazin-1-yl)quinazolin-4(3H)-one]
14	3	> 10000				C[C@H](Nc1ncnc2scnc12)c1nc2cccc(Cl)c2c(=O)n1N1CCNCC1 [Compound 70, (S)-5-chloro-3-(piperazin-1-yl)-2-(1-(thiazolo[5,4-d]pyrimidin-7-ylamino)ethyl)quinazolin-4(3H)-one]
3	2	3200				C[C@H](Nc1ncnc2ccc(Cl)nc12)c1nc2cccc(Cl)c2c(=O)n1N1CCNCC1 [Compound 71, (S)-5-chloro-2-(1-((6-chloropyrido[3,2-d]pyrimidin-4-yl)amino)ethyl)-3-(piperazin-1-yl)quinazolin-4(3H)-one]
28	11	> 10000				C[C@H](Nc1nc(N)nc(N)c1Cl)c1nc2cccc(Cl)c2c(=O)n1N1CCNCC1 [Compound 72, (S)-5-chloro-2-(1-((2,6-diamino-5-chloropyrimidin-4-yl)amino)ethyl)-3-(piperazin-1-yl)quinazolin-4(3H)-one]
19	8	> 10000				C[C@H](Nc1ncnc2cccnc12)c1nc2cccc(Cl)c2c(=O)n1N1CCNCC1 [Compound 73, (S)-5-chloro-3-(piperazin-1-yl)-2-(1-(pyrido[3,2-d]pyrimidin-4-ylamino)ethyl)quinazolin-4(3H)-one]
